US10206394B2, “Herbicidal compounds” (Syngenta Participations AG, priority 2014, dated 2019)
Like-named read-outs stand apart in the source and are kept apart here.

Key:
Assay in all cases: Glasshouse assay for herbicidal activity (pre- and post-emergence), percentage phytotoxicity
Format in all cases: in vivo
[1] = test system: Alopecurus myosuroides (ALOMY); conditions: Alopecurus myosuroides, Rate 250 g/ha, 100%=total damage, 0%=no damage
Protocol: (§1) Test—Glasshouse Assay for Herbicidal Activity
(§2) Seeds of a variety of monocotyledonous and dicotyledonous test plants are sown in standard soil in pots. The plants are cultivated for one day (for pre-emergence (PRE)) or for about 12 days (for post-emergence (POST)) under controlled conditions in a glasshouse (warm climate species at 24/18° C., cool climate species at 20/16° C., both at day/night; 16 hours light; 65% humidity).
(§3) The test plants are then grown on, in a glasshouse (greenhouse) under controlled conditions (warm climate species at 24/18° C., cool climate species at 20/16° C., both at day/night; 16 hours light; 65% humidity) and are watered twice daily. 15 days after application of the test herbicide (15 DAA) (for post-emergence), and 20 days after application of the test herbicide (20 DAA) (for pre-emergence), the test plants are evaluated visually, and an assessed percentage phytotoxicity score is given for each herbicidal application on each plant species (with 100%=total damage to plant; 0%=no damage to plant).
(§4) The plant species tested are as follows: Alopecurus myosuroides (ALOMY), Avena fatua (AVEFA), Lolium perenne (LOLPE), Echinochloa crus-galli (ECHCG).

Avena fatua (AVEFA) = conditions: Avena fatua, Rate 250 g/ha, 100%=total damage, 0%=no damage
Protocol: as §1, §2, §3, §4

[2] = test system: Echinochloa crus-galli (ECHCG); conditions: Echinochloa crus-galli, Rate 250 g/ha, 100%=total damage, 0%=no damage
Protocol: as §1, §2, §3, §4

Lolium perenne (LOLPE) = conditions: Lolium perenne, Rate 250 g/ha, 100%=total damage, 0%=no damage
Protocol: as §1, §2, §3, §4

[3] = post-emergence, 360 h, post-emergence, assessed visually 15 DAA, read-out: Post-emergence herbicidal activity (percentage phytotoxicity) ALOMY POST
[4] = pre-emergence, 480 h, pre-emergence, assessed visually 20 DAA, read-out: Pre-emergence herbicidal activity (percentage phytotoxicity) ALOMY PRE
[5] = post-emergence, 360 h, post-emergence, assessed visually 15 DAA, read-out: Post-emergence herbicidal activity (percentage phytotoxicity) AVEFA POST
[6] = pre-emergence, 480 h, pre-emergence, assessed visually 20 DAA, read-out: Pre-emergence herbicidal activity (percentage phytotoxicity) AVEFA PRE
[7] = post-emergence, 360 h, post-emergence, assessed visually 15 DAA, read-out: Post-emergence herbicidal activity (percentage phytotoxicity) ECHCG POST
[8] = pre-emergence, 480 h, pre-emergence, assessed visually 20 DAA, read-out: Pre-emergence herbicidal activity (percentage phytotoxicity) ECHCG PRE
[9] = post-emergence, 360 h, post-emergence, assessed visually 15 DAA, read-out: Post-emergence herbicidal activity (percentage phytotoxicity) LOLPE POST
[10] = pre-emergence, 480 h, pre-emergence, assessed visually 20 DAA, read-out: Pre-emergence herbicidal activity (percentage phytotoxicity) LOLPE PRE

| SMILES | pest or weed control at 250 g/ha [1, 3] [%] | pest or weed control at 250 g/ha [1, 4] [%] | pest or weed control at 250 g/ha (Avena fatua (AVEFA); [5]) [%] | pest or weed control at 250 g/ha (Avena fatua (AVEFA); [6]) [%] | pest or weed control at 250 g/ha [2, 7] [%] | pest or weed control at 250 g/ha [2, 8] [%] | pest or weed control at 250 g/ha (Lolium perenne (LOLPE); [9]) [%] | pest or weed control at 250 g/ha (Lolium perenne (LOLPE); [10]) [%] |
| --- | --- | --- | --- | --- | --- | --- | --- | --- |
| C#CCNC(=O)CC1CC(=O)C(c2c(C)cc(C#CC)cc2CC)C1=O (stereo not shown) [Compound A68] | 90 | 70 | 100 | 100 | 100 | 100 | 100 | 100 |
| C#CCNC(=O)CC1CC(=O)C(c2c(C)cc(-c3ncc(Cl)cc3F)cc2C)C1=O (stereo not shown) [Compound A69] | 100 | 100 | 100 | 100 | 100 | 100 | 100 | 100 |
| Cc1cc(-n2cc(Cl)cn2)cc(C)c1C1C(=O)CC(CC(=O)NCc2ccccn2)C1=O (stereo not shown) [Compound A71] | 100 | 80 | 90 | 80 | 100 | 90 | 70 | 60 |
| Cc1cc(-n2cc(Cl)cn2)cc(C)c1C1C(=O)CC(CC(=O)NCC(C)C)C1=O (stereo not shown) [Compound A72] | 90 | 90 | 90 | 90 | 90 | 100 | 80 | 90 |
| Cc1cc(-n2cc(Cl)cn2)cc(C)c1C1C(=O)CC(CC(=O)NC(C)C)C1=O (stereo not shown) [Compound A74] | 100 | 100 | 100 | 90 | 100 | 100 | 90 | 90 |
| Cc1cc(-n2cc(Cl)cn2)cc(C)c1C1C(=O)CC(CC(=O)NC2CC2)C1=O (stereo not shown) [Compound A75] | 100 | 100 | 100 | 90 | 100 | 100 | 90 | 90 |
| C=CCCNC(=O)CC1CC(=O)C(c2c(C)cc(-n3cc(Cl)cn3)cc2C)C1=O (stereo not shown) [Compound A76] | 100 | 90 | 90 | 90 | 100 | 100 | 80 | 90 |
| COCCNC(=O)CC1CC(=O)C(c2c(C)cc(-n3cc(Cl)cn3)cc2C)C1=O (stereo not shown) [Compound A77] | 90 | 80 | 90 | 80 | 100 | 100 | 80 | 80 |
| CC#Cc1cc(C)c(C2C(=O)CC(CC(=O)NCC#N)C2=O)c(C)c1 (stereo not shown) [Compound A78] | 80 | 10 | 40 | 30 | 100 | 60 | 30 | 20 |
| CC#Cc1cc(C)c(C2C(=O)CC(CC(=O)N(C)CCC)C2=O)c(CC)c1 (stereo not shown) [Compound A79] | 100 | 100 | 100 | 100 | 100 | 100 | 100 | 100 |
| CC#Cc1cc(C)c(C2C(=O)CC(CC(=O)NC3CCC3)C2=O)c(C)c1 (stereo not shown) [Compound A81] | 90 | 100 | 100 | 100 | 100 | 100 | 90 | 100 |
| Cc1cc(C)c(C2C(=O)CC(CC(=O)NC3(C#N)CC3)C2=O)c(C)c1 (stereo not shown) [Compound A82] | 10 |  | 10 |  | 30 |  | 30 |  |
| Cc1cc(C)c(C2C(=O)CC(CC(=O)NCC#N)C2=O)c(C)c1 (stereo not shown) [Compound A83] | 50 |  | 10 |  | 70 |  | 30 |  |
| Cc1cc(C)c(C2C(=O)CC(CC(=O)NCc3cc(C)nn3C)C2=O)c(C)c1 (stereo not shown) [Compound A84] | 60 | 40 | 20 | 0 | 70 | 0 | 20 | 10 |
| Cc1cc(C)c(C2C(=O)CC(CC(=O)NCCC#N)C2=O)c(C)c1 (stereo not shown) [Compound A86] | 30 | 0 | 40 | 0 | 80 | 20 | 50 | 10 |
| COCCNC(=O)CC1CC(=O)C(c2c(C)cc(-c3ncc(F)cn3)cc2C)C1=O (stereo not shown) [Compound A87] | 100 | 80 | 100 | 90 | 100 | 90 | 80 | 80 |
| Cc1cccc(CNC(=O)CC2CC(=O)C(c3c(C)cc(C)cc3C)C2=O)c1 (stereo not shown) [Compound A88] | 70 | 90 | 10 | 0 | 80 | 70 | 100 | 100 |
| Cc1cc(C)c(C2C(=O)CC(CC(=O)NCc3cccc(C(F)(F)F)c3)C2=O)c(C)c1 (stereo not shown) [Compound A89] | 90 | 90 | 90 | 60 | 100 | 100 | 100 | 90 |
| COc1ccccc1CNC(=O)CC1CC(=O)C(c2c(C)cc(C)cc2C)C1=O (stereo not shown) [Compound A90] | 0 | 0 | 0 | 0 | 80 | 40 | 70 | 60 |
| Cc1cc(C)c(C2C(=O)CC(CC(=O)NCCC3=CCCCC3)C2=O)c(C)c1 (stereo not shown) [Compound A91] | 10 | 30 | 0 | 30 | 0 | 20 | 70 | 70 |
| Cc1cc(C)c(C2C(=O)CC(CC(=O)NCc3ccc(OC(F)(F)F)cc3)C2=O)c(C)c1 (stereo not shown) [Compound A92] | 60 | 70 | 70 | 60 | 80 | 80 | 40 | 90 |
